{"source": "paper PMC5218480", "about": "(PLoS ONE, 2017)", "test_system": "MV-4-11 cells", "assay": "Gene expression microarray analysis (Affymetrix PrimeView) and GSEA", "format": "cell-based, human", "design": "RFU PODN (11730768_x_at) / Fold change /veh PODN (11730768_x_at) / RFU LINC00158 (11744669_a_at) / Fold change /veh LINC00158 (11744669_a_at) / RFU DUSP10 (11751237_a_at) / Fold change /veh DUSP10 (11751237_a_at) / RFU ID3 (11757404_x_at) / Fold change /veh ID3 (11757404_x_at) / RFU PLEKHG5 (11737974_s_at) / Fold change /veh PLEKHG5 (11737974_s_at) / RFU LRRC4B (11730491_at) / Fold change /veh LRRC4B (11730491_at) / RFU GIMAP4 (11747438_a_at) / Fold change /veh GIMAP4 (11747438_a_at) / RFU KRT8 (11758183_x_at) / Fold change /veh KRT8 (11758183_x_at) / RFU CNN1 (11734310_a_at) / Fold change /veh CNN1 (11734310_a_at) / RFU VPS37D (11726825_at) / Fold change /veh VPS37D (11726825_at) / RFU C10orf10 (11716522_x_at) / Fold change /veh C10orf10 (11716522_x_at) / RFU KIR2DL2 /// KIR2DL4 /// KIR2DL5A /// KIR2DL5B /// KIR2DS1 /// KIR2DS2 /// KIR2DS3 /// KIR2DS4 /// KIR3DL3 /// KIR3DL3 /// KIR3DS1 (11738374_at) / Fold change /veh KIR2DL2 /// KIR2DL4 /// KIR2DL5A /// KIR2DL5B /// KIR2DS1 /// KIR2DS2 /// KIR2DS3 /// KIR2DS4 /// KIR3DL3 /// KIR3DL3 /// KIR3DS1 (11738374_at) / RFU C1QL1 (11718748_at) / Fold change /veh C1QL1 (11718748_at) / RFU TMPRSS4 (11747572_a_at) / Fold change /veh TMPRSS4 (11747572_a_at) / RFU HAMP (11756126_x_at) / Fold change /veh HAMP (11756126_x_at) / RFU RNFT2 (11725882_a_at) / Fold change /veh RNFT2 (11725882_a_at) / RFU NR4A2 (11747474_a_at) / Fold change /veh NR4A2 (11747474_a_at) / RFU ABCC12 (11746883_a_at) / Fold change /veh ABCC12 (11746883_a_at) / RFU TMEM136 (11760407_x_at) / Fold change /veh TMEM136 (11760407_x_at) / RFU CLDN22 /// WWC2 (11732394_at) / Fold change /veh CLDN22 /// WWC2 (11732394_at) / RFU HLA-DPB1 (11760878_x_at) / Fold change /veh HLA-DPB1 (11760878_x_at) / RFU SPINT1 (11716480_a_at) / Fold change /veh SPINT1 (11716480_a_at) / RFU GAP43 (11754022_s_at) / Fold change /veh GAP43 (11754022_s_at) / RFU A4GNT (11735810_at) / Fold change /veh A4GNT (11735810_at) / RFU PRB3 (11715151_x_at) / Fold change /veh PRB3 (11715151_x_at) / RFU TUBB4B (11761932_at) / Fold change /veh TUBB4B (11761932_at) / RFU CAPN14 (11732068_a_at) / Fold change /veh CAPN14 (11732068_a_at) / RFU TMCC2 (11721928_a_at) / Fold change /veh TMCC2 (11721928_a_at) / RFU IRGQ (11745062_a_at) / Fold change /veh IRGQ (11745062_a_at) / RFU FAM174B (11720279_a_at) / Fold change /veh FAM174B (11720279_a_at) / RFU TMPRSS4 (11748680_a_at) / Fold change /veh TMPRSS4 (11748680_a_at) / RFU FAM212B (11763350_a_at) / Fold change /veh FAM212B (11763350_a_at) / RFU PLEKHG5 (11743358_a_at) / Fold change /veh PLEKHG5 (11743358_a_at) / RFU ZSCAN30 (11745921_a_at) / Fold change /veh ZSCAN30 (11745921_a_at) / RFU CMKLR1 (11741424_a_at) / Fold change /veh CMKLR1 (11741424_a_at) / RFU LOC101060620 /// MAPK8IP1 (11723275_at) / Fold change /veh LOC101060620 /// MAPK8IP1 (11723275_at) / RFU SPTSSB (11747773_x_at) / Fold change /veh SPTSSB (11747773_x_at) / RFU PRSS12 (11739890_at) / Fold change /veh PRSS12 (11739890_at) / RFU BIN1 (11741810_x_at) / Fold change /veh BIN1 (11741810_x_at) / RFU WNT11 (11732464_a_at) / Fold change /veh WNT11 (11732464_a_at) / RFU C10orf10 (11716521_a_at) / Fold change /veh C10orf10 (11716521_a_at) / RFU C5orf56 (11738089_at) / Fold change /veh C5orf56 (11738089_at) / RFU CYB561 (11721691_x_at) / Fold change /veh CYB561 (11721691_x_at) / RFU ANKRD19P (11752326_a_at) / Fold change /veh ANKRD19P (11752326_a_at) / RFU OR2T12 /// OR2T33 /// OR2T8 (11738714_s_at) / Fold change /veh OR2T12 /// OR2T33 /// OR2T8 (11738714_s_at) / RFU VCAN (11748164_a_at) / Fold change /veh VCAN (11748164_a_at) / RFU JSRP1 (11732532_at) / Fold change /veh JSRP1 (11732532_at) / RFU KRTAP10-11 (11738290_x_at) / Fold change /veh KRTAP10-11 (11738290_x_at) / RFU MYO3A (11730013_a_at) / Fold change /veh MYO3A (11730013_a_at) / RFU EBF3 (11725865_a_at) / Fold change /veh EBF3 (11725865_a_at) / RFU CAMK2N1 (11719241_x_at) / Fold change /veh CAMK2N1 (11719241_x_at) / RFU C5orf56 (11738088_a_at) / Fold change /veh C5orf56 (11738088_a_at) / RFU OLFML3 (11715873_a_at) / Fold change /veh OLFML3 (11715873_a_at) / RFU LOC100653217 /// NTM (11731650_a_at) / Fold change /veh LOC100653217 /// NTM (11731650_a_at) / RFU MAPK11 (11762145_a_at) / Fold change /veh MAPK11 (11762145_a_at) / RFU FIZ1 (11724087_x_at) / Fold change /veh FIZ1 (11724087_x_at) / RFU OASL (11726364_x_at) / Fold change /veh OASL (11726364_x_at) / RFU SOX15 (11748057_x_at) / Fold change /veh SOX15 (11748057_x_at) / RFU CD79A (11719716_a_at) / Fold change /veh CD79A (11719716_a_at) / RFU HIST1H1D (11736915_at) / Fold change /veh HIST1H1D (11736915_at) / RFU CASKIN2 (11723855_a_at) / Fold change /veh CASKIN2 (11723855_a_at) / RFU LOC730098 (11760151_x_at) / Fold change /veh LOC730098 (11760151_x_at) / RFU OR4N2 (11742367_at) / Fold change /veh OR4N2 (11742367_at) / RFU PRRT2 (11749266_a_at) / Fold change /veh PRRT2 (11749266_a_at) / RFU SNX32 (11753110_a_at) / Fold change /veh SNX32 (11753110_a_at) / RFU CDHR5 (11726645_a_at) / Fold change /veh CDHR5 (11726645_a_at) / RFU RCAN1 (11760418_a_at) / Fold change /veh RCAN1 (11760418_a_at) / RFU FAM167A (11723789_a_at) / Fold change /veh FAM167A (11723789_a_at) / RFU FAM26E (11764081_at) / Fold change /veh FAM26E (11764081_at) / RFU ISYNA1 (11749810_s_at) / Fold change /veh ISYNA1 (11749810_s_at) / RFU ACY1 (11761880_at) / Fold change /veh ACY1 (11761880_at) / RFU 11764098_at / Fold change /veh 11764098_at / RFU SAMD14 (11745864_x_at) / Fold change /veh SAMD14 (11745864_x_at) / RFU NPB (11741838_a_at) / Fold change /veh NPB (11741838_a_at) / RFU TMPRSS6 (11731388_a_at) / Fold change /veh TMPRSS6 (11731388_a_at) / RFU KRTAP10-2 (11738614_at) / Fold change /veh KRTAP10-2 (11738614_at) / RFU ARHGAP8 /// PRR5-ARHGAP8 (11727945_x_at) / Fold change /veh ARHGAP8 /// PRR5-ARHGAP8 (11727945_x_at) / RFU KRTAP5-7 /// NADSYN1 (11734609_at) / Fold change /veh KRTAP5-7 /// NADSYN1 (11734609_at) / RFU RASL12 (11751679_a_at) / Fold change /veh RASL12 (11751679_a_at) / RFU CDKN2B (11736163_a_at) / Fold change /veh CDKN2B (11736163_a_at) / RFU PRF1 (11729649_at) / Fold change /veh PRF1 (11729649_at) / RFU, ZNF638 /// ZNF638-IT1 / Fold change vs veh, ZNF638 /// ZNF638-IT1 / RFU, PANK3 / Fold change vs veh, PANK3 / RFU, SH3YL1 / Fold change vs veh, SH3YL1 / RFU, ZEB2 / Fold change vs veh, ZEB2 / RFU, NRIP1 / Fold change vs veh, NRIP1 / RFU, PTTG1IP / Fold change vs veh, PTTG1IP / RFU, CAPN2 / Fold change vs veh, CAPN2 / RFU, MED14 / Fold change vs veh, MED14 / RFU, SNORA58 / Fold change vs veh, SNORA58 / RFU, C1orf63 / Fold change vs veh, C1orf63 / RFU, LRRFIP1 / Fold change vs veh, LRRFIP1 / RFU, NDUFAF7 / Fold change vs veh, NDUFAF7 / RFU, SLC12A2 / Fold change vs veh, SLC12A2 / RFU, IBTK / Fold change vs veh, IBTK / RFU, ESF1 / Fold change vs veh, ESF1 / Fold change vs veh, TMEM50B / RFU, TAOK1 / Fold change vs veh, TAOK1 / RFU, ACBD3 / Fold change vs veh, ACBD3 / RFU, TMA16 / Fold change vs veh, TMA16 / RFU, RWDD3 / Fold change vs veh, RWDD3 / RFU, BCAT1 / Fold change vs veh, BCAT1 / RFU, EDEM3 / Fold change vs veh, EDEM3 / RFU, TMEM33 / Fold change vs veh, TMEM33 / RFU, WDR75 / Fold change vs veh, WDR75 / RFU, AHCTF1 / Fold change vs veh, AHCTF1 / RFU, TFRC / Fold change vs veh, TFRC / RFU, ZDHHC17 / Fold change vs veh, ZDHHC17 / RFU, NOM1 / Fold change vs veh, NOM1 / RFU, ARL8B / Fold change vs veh, ARL8B / RFU, ZBTB11 / Fold change vs veh, ZBTB11 / RFU, TAMM41 / Fold change vs veh, TAMM41 / RFU, KIAA1704 /// LOC100996395 / Fold change vs veh, KIAA1704 /// LOC100996395 / RFU, ING1 / Fold change vs veh, ING1 / RFU, TRMT61B / Fold change vs veh, TRMT61B / RFU, FUBP3 / Fold change vs veh, FUBP3 / RFU, TP53 / Fold change vs veh, TP53 / RFU, TNKS2 / Fold change vs veh, TNKS2 / RFU, ZFP14 / Fold change vs veh, ZFP14 / RFU, ACTR2 / Fold change vs veh, ACTR2 / RFU, PPP3R1 / Fold change vs veh, PPP3R1 / RFU, PIK3R1 / Fold change vs veh, PIK3R1 / RFU, HNRNPA1 / Fold change vs veh, HNRNPA1 / RFU, RNF170 / Fold change vs veh, RNF170 / RFU, ZNF28 / Fold change vs veh, ZNF28 / RFU, RNGTT / Fold change vs veh, RNGTT / RFU, OGT / Fold change vs veh, OGT / RFU, BRD1 / Fold change vs veh, BRD1 / RFU, MARS / Fold change vs veh, MARS / RFU, ZNF655 / Fold change vs veh, ZNF655 / RFU, FAHD1 / Fold change vs veh, FAHD1 / RFU, BDP1 / Fold change vs veh, BDP1 / RFU, LRRCC1 / Fold change vs veh, LRRCC1 / RFU, ARID1A / Fold change vs veh, ARID1A / RFU, ZNF146 / Fold change vs veh, ZNF146 / RFU, ZNF330 / Fold change vs veh, ZNF330 / RFU, GPN3 / Fold change vs veh, GPN3 / RFU, C9orf123 / Fold change vs veh, C9orf123 / RFU, N4BP2L2 / Fold change vs veh, N4BP2L2 / RFU, ARFIP1 / Fold change vs veh, ARFIP1 / RFU, FAM179B / Fold change vs veh, FAM179B / RFU, BCL10 / Fold change vs veh, BCL10 / RFU, UHRF1BP1L / Fold change vs veh, UHRF1BP1L / RFU, BET1 / Fold change vs veh, BET1 / RFU, CNOT2 / Fold change vs veh, CNOT2 / RFU, ZNF268 / Fold change vs veh, ZNF268 / Fold change vs veh, ZNF507 / RFU, DGCR2 / Fold change vs veh, DGCR2 / RFU, WDSUB1 / Fold change vs veh, WDSUB1 / Fold change vs veh, HSP90B1 /// MIR3652 / RFU, ADSS / Fold change vs veh, ADSS / RFU, GK / Fold change vs veh, GK / RFU, ZNF148 / Fold change vs veh, ZNF148 / RFU, TAF9 / Fold change vs veh, TAF9 / RFU, SLC1A5 / Fold change vs veh, SLC1A5 / RFU, SLMO2 / Fold change vs veh, SLMO2 / RFU, ABCC4 / Fold change vs veh, ABCC4 / RFU, LOC101060439 /// RAP1B / Fold change vs veh, LOC101060439 /// RAP1B / RFU, RFX7 / Fold change vs veh, RFX7 / RFU, GTPBP10 / Fold change vs veh, GTPBP10 / RFU, CNEP1R1 / Fold change vs veh, CNEP1R1 / RFU, BIVM-ERCC5 /// ERCC5 / Fold change vs veh, BIVM-ERCC5 /// ERCC5 / RFU, ILF3 / Fold change vs veh, ILF3 / RFU 11762660_at / Fold change /veh 11762660_at / RFU VCAN (11757783_s_at) / Fold change /veh VCAN (11757783_s_at) / RFU DDX43 (11728927_at) / Fold change /veh DDX43 (11728927_at) / RFU KRT8 (11758188_x_at) / Fold change /veh KRT8 (11758188_x_at) / RFU NKD1 (11759106_at) / Fold change /veh NKD1 (11759106_at) / RFU SRD5A1 (11742802_a_at) / Fold change /veh SRD5A1 (11742802_a_at) / RFU TPSAB1 /// TPSB2 (11721975_s_at) / Fold change /veh TPSAB1 /// TPSB2 (11721975_s_at) / RFU GSTM3 (11746129_a_at) / Fold change /veh GSTM3 (11746129_a_at) / RFU IL23R (11737362_x_at) / Fold change /veh IL23R (11737362_x_at) / RFU TMEM51 (11727254_a_at) / Fold change /veh TMEM51 (11727254_a_at) / RFU PIWIL2 (11732686_x_at) / Fold change /veh PIWIL2 (11732686_x_at) / RFU ORM1 (11744905_x_at) / Fold change /veh ORM1 (11744905_x_at) / RFU CCDC152 (11743942_at) / Fold change /veh CCDC152 (11743942_at) / RFU ECM1 (11717891_a_at) / Fold change /veh ECM1 (11717891_a_at) / RFU IL23R (11748794_a_at) / Fold change /veh IL23R (11748794_a_at) / RFU TNFAIP8L3 (11732012_x_at) / Fold change /veh TNFAIP8L3 (11732012_x_at) / RFU MBOAT4 (11741988_at) / Fold change /veh MBOAT4 (11741988_at) / RFU 11764193_at / Fold change /veh 11764193_at / RFU TMEM53 (11763286_at) / Fold change /veh TMEM53 (11763286_at) / RFU MAGEB2 (11727129_at) / Fold change /veh MAGEB2 (11727129_at) / RFU TMEM200A (11744735_a_at) / Fold change /veh TMEM200A (11744735_a_at) / RFU CCDC152 (11751479_a_at) / Fold change /veh CCDC152 (11751479_a_at) / RFU FAM211A (11726209_a_at) / Fold change /veh FAM211A (11726209_a_at) / RFU RGS16 (11746705_a_at) / Fold change /veh RGS16 (11746705_a_at) / RFU VCAN (11755009_s_at) / Fold change /veh VCAN (11755009_s_at) / RFU RHOB (11743442_s_at) / Fold change /veh RHOB (11743442_s_at) / RFU RGS16 (11720943_a_at) / Fold change /veh RGS16 (11720943_a_at) / RFU RGS16 (11720944_at) / Fold change /veh RGS16 (11720944_at) / RFU, VPS4B / Fold change vs veh, VPS4B / RFU, CREB1 / Fold change vs veh, CREB1 / RFU, DNAJC13 / Fold change vs veh, DNAJC13 / RFU, GNAQ / Fold change vs veh, GNAQ / RFU, CDK5R1 / Fold change vs veh, CDK5R1 / RFU, ZRANB3 / Fold change vs veh, ZRANB3 / RFU, CUL4A / Fold change vs veh, CUL4A / RFU, CCNY / Fold change vs veh, CCNY / RFU, UFL1 / Fold change vs veh, UFL1 / RFU, COG3 / Fold change vs veh, COG3 / RFU, DIAPH2 / Fold change vs veh, DIAPH2 / RFU, SKA2 / Fold change vs veh, SKA2 / RFU, AFF3 / Fold change vs veh, AFF3 / RFU, LMF1 / Fold change vs veh, LMF1 / RFU, IPO11 / Fold change vs veh, IPO11 / RFU, DFFB / Fold change vs veh, DFFB / RFU, FOXP1 / Fold change vs veh, FOXP1 / RFU, CARD8 / Fold change vs veh, CARD8 / RFU, STRN3 / Fold change vs veh, STRN3 / RFU, ADK / Fold change vs veh, ADK / RFU, RASSF2 / Fold change vs veh, RASSF2 / RFU, WIPF1 / Fold change vs veh, WIPF1 / RFU, LARP1B / Fold change vs veh, LARP1B / RFU, RASA1 / Fold change vs veh, RASA1 / RFU, RB1 / Fold change vs veh, RB1 / RFU, PPFIA1 / Fold change vs veh, PPFIA1 / RFU, MAT2A / Fold change vs veh, MAT2A / RFU, CCT5 / Fold change vs veh, CCT5 / RFU, WDR92 / Fold change vs veh, WDR92 / RFU, CUX1 / Fold change vs veh, CUX1 / RFU, TTC7A / Fold change vs veh, TTC7A / RFU, TMEM135 / Fold change vs veh, TMEM135 / RFU, DEPTOR / Fold change vs veh, DEPTOR / RFU, CPM / Fold change vs veh, CPM / RFU, DNAJB6 / Fold change vs veh, DNAJB6 / RFU, CACNA2D3 / Fold change vs veh, CACNA2D3 / RFU, DTX4 / Fold change vs veh, DTX4 / RFU, TFCP2 / Fold change vs veh, TFCP2 / RFU, GMCL1 /// GMCL1P1 / Fold change vs veh, GMCL1 /// GMCL1P1 / RFU, AEBP2 / Fold change vs veh, AEBP2 / RFU, SNHG1 /// SNORD22 /// SNORD25 /// SNORD26 /// SNORD27 /// SNORD28 /// SNORD29 /// SNORD31 / Fold change vs veh, SNHG1 /// SNORD22 /// SNORD25 /// SNORD26 /// SNORD27 /// SNORD28 /// SNORD29 /// SNORD31 / Fold change (Aza/veh), C12orf56 (ProbeSet 11735607_a_at) / Fold change (ACY-1035/veh), C12orf56 (ProbeSet 11735607_a_at) / Fold change (Aza/veh), FGFR1OP (ProbeSet 11751329_s_at) / Fold change (ACY-1035/veh), FGFR1OP (ProbeSet 11751329_s_at) / Fold change (Aza/veh), VPS36 (ProbeSet 11739960_a_at) / Fold change (ACY-1035/veh), VPS36 (ProbeSet 11739960_a_at) / RFU SYPL1 (11715823_x_at) / Fold change /veh SYPL1 (11715823_x_at) / RFU IGFBP7 (11715501_s_at) / Fold change /veh IGFBP7 (11715501_s_at) / RFU REEP3 (11722064_at) / Fold change /veh REEP3 (11722064_at) / RFU IGLL1 (11728026_x_at) / Fold change /veh IGLL1 (11728026_x_at): dose or concentration left out as unconfirmed", "details": "ProbeSet 11716891_at; LIST B"}
{"smiles": "Nc1ncn([C@@H]2O[C@H](CO)[C@@H](O)[C@H]2O)c(=O)n1", "note": "[azacitidine]", "values": [{"measurement": "Fold change vs veh, C9orf123", "result": 1.12}]}
